Results as given in publication PMC7774954, “Interactomic affinity profiling by holdup assay: Acetylation and distal residues impact the PDZome-binding specificity of PTEN phosphatase” (PLoS ONE, 2020).

Test system: 266 human PDZ domains (PDZome)
Assay: Holdup assay (chromatographic retention, PDZome-binding profile, BI)
Design: key to maximal BI / Max BI / BI: binding intensity: 0.00 = no binding, 1.00 = maximal binding; Log(Kd): unit not given here
Procedure: The holdup method is a chromatographic approach in solution developed in our group that allows to measure the binding strength of a peptide, attached to a resin, against a library of domains of a same family. We initially proposed this method to explore the interaction between PBM peptides and the human PDZ domains. Briefly, a soluble cell lysate containing individually overexpressed PDZ domain is incubated until equilibrium with a calibrated amount of streptavidin-resin saturated either with the target biotinylated PBM peptide or with biotin as a reference. The flow-throughs containing the unbound protein fraction are recovered by filtration and loaded on a capillary electrophoresis instrument to quantify the amount of remaining free PDZ. The stronger the steady-state depletion of the PDZ domain in the flow-through as compared to the reference, the stronger the PDZ/PBM binding interaction. The assay is particularly suited to quantitatively evaluate and compare large numbers of interactions. This method delivers, for each PBM/PDZ pair, a "binding intensity" (BI), whose value can in principle range from 0.00 (no binding event detected) to 1.00 (maximal binding event). The approach has been automated and the human PDZ library was recently extended to the complete 266 PDZ domains known in human proteome. […] The high accuracy and efficiency of the holdup assay have been validated previously. Very recently, a manual version of the holdup assay with purified samples and using widespread benchtop equipment has been implemented and has proven to be reliable.
The 266 PDZ domains that constitute the PDZ library (“PDZome V.2”) used in the present work were produced using constructs with optimized boundaries as described previously. All the genes were fused to Maltose-Binding Protein (MBP) or Thioredoxin (THR) tag often used to facilitate the solubilisation of the over-expressed protein, by cloning them into the pETG41A or pETG20A plasmid, respectively. […] The expressed tag-PDZ concentrations were quantified using capillary gel electrophoresis and cell lysates were diluted to reach approximately 5 μM tag-PDZ before freezing in 96-well plates. A detailed protocol of the PDZ library production, expression and benchmarking can be found in [32]. PDZ domains are named according to their originating protein name followed by the PDZ number (e.g. NHERF1-1 as the first PDZ domain of the NHERF1 protein).
The holdup assay was performed on a Tecan freedom Evo200 robot with 384-well plates in singlicate for the three 11-mer PTEN variants and the 13-mer PTEN peptide as described in [31, 32]. Briefly, prior to interaction assay, 2.5 μL of streptavidin resin was saturated in each well with 20 μL of biotinylated PBM peptides (42 μM) and then washed twice with an excess of free biotin, while the reference resin was incubated only with biotin. Right before the holdup experiment, the PDZ library was spiked with an internal standard of lysozyme. Then, the biotin- or PBM-saturated resin was incubated, each in a distinct well of a 384-well plate, with complete cell lysates diluted so that the concentration of the tag-PDZ present in the crude extract is adjusted at 4 μM. After a sufficient time to reach complex equilibrium (15 min.), a fast and mild filtration step is performed and the tag-PDZ concentrations were measured by capillary electrophoresis instrument (LabChip GXII, PerkinElmer, Massachusets, USA). Standard markers were used to convert migration time into molecular weight on the LabChip software and inappropriate molecular weight markers were corrected or excluded.
Holdup data quality check and processing […]

[1] = PDZ domain PARD3-1, first of two lines so named (r186)

CC[C@H](C)[C@H](NC(=O)[C@H](CCC(N)=O)NC(=O)[C@@H](NC(=O)[C@H](Cc1c[nH]cn1)NC(=O)[C@H](CCC(N)=O)NC(=O)[C@H](CC(=O)O)NC(=O)[C@H](CCC(=O)O)NC(=O)[C@H](CC(=O)O)NC(=O)CCC(=O)NCCCOCCOCCOCCCNC(=O)CCCC[C@@H]1SC[C@@H]2NC(=O)N[C@@H]21)[C@@H](C)O)C(=O)N[C@H](C(=O)N[C@@H](CCCCN)C(=O)N[C@H](C(=O)O)C(C)C)[C@@H](C)O [PTEN_11] showed a BI (PDZ domain MPDZ-2) of -0.043, a BI (PDZ domain MPDZ-3) of 0.079 and a BI (PDZ domain MPDZ-4) of -0.037. For the same compound, the BI (PDZ domain MPDZ-5) was 0.085, the BI (PDZ domain MPDZ-6) was -0.029 and the BI (PDZ domain MPDZ-7) was 0.154. For the same compound, the BI (PDZ domain MPDZ-8) was 0.119, the BI (PDZ domain MPDZ-9 (gene NHERF2, 2)) was -0.075 and the BI (PDZ domain MPP1-1) was -0.033. It also gave a BI (PDZ domain MPP2-1) of -0.076, a BI (PDZ domain MPP3-1) of 0.035 and a BI (PDZ domain MPP4-1) of 0.041. The BI (PDZ domain MPP5-1) was -0.091, the BI (PDZ domain MPP6-1) was -0.062 and the BI (PDZ domain MPP7-1) was 0.034. The BI (PDZ domain NHERF1-2) was 0.094, the BI (PDZ domain NHERF3-1) was 0.153 and the BI (PDZ domain NHERF3-2) was 0.063. For the same compound, the BI (PDZ domain NHERF3-3) was 0.131, the BI (PDZ domain NHERF3-4) was -0.013 and the BI (PDZ domain NHERF4-1) was -0.04. It also gave a BI (PDZ domain NHERF4-2) of -0.071, a BI (PDZ domain NHERF4-3) of 0.06 and a BI (PDZ domain NHERF4-4) of -0.01. The BI (PDZ domain NOS1-1) was 0.016, the BI [1] was 0.172 and the “Log(Kd)” value [1] was 3.7949. It also gave a BI (PDZ domain PARD3-1, second of two lines so named (r187)) of 0.048, a BI (PDZ domain PARD3B-1) of -0.032 and a BI (PDZ domain PARD3B-2) of 0.045. It also gave a BI (PDZ domain PARD3B-3) of -0.026, a BI (PDZ domain PARD6G-1) of -0.088 and a BI (PDZ domain PDLIM2-1) of -0.001. It also gave a BI (PDZ domain PDLIM3-1) of -0.059, a BI (PDZ domain PDLIM4-1) of -0.02 and a BI (PDZ domain PDLIM5-1) of 0.07. The BI (PDZ domain PDLIM7-1) was 0.032, the BI (PDZ domain PDZD2-1) was -0.006 and the BI (PDZ domain PDZD2-3) was -0.072. It also gave a BI (PDZ domain PDZD2-4) of -0.02, a BI (PDZ domain PDZD2-5) of 0.028 and a BI (PDZ domain PDZD2-6) of 0.115. The BI (PDZ domain PDZD4-1) was 0.019, the BI (PDZ domain PDZD7-1) was -0.032 and the BI (PDZ domain PDZD7-2) was 0.087. For the same compound, the BI (PDZ domain PDZD7-3) was 0.658, the BI (PDZ domain PDZD8-1) was -0.04 and the BI (PDZ domain PDZD11-1) was -0.013. It also gave a BI (PDZ domain PDZRN4-1) of 0, a BI (PDZ domain PDZRN4-2) of 0.005 and a BI (PDZ domain PREX1-1) of 0.099. For the same compound, the BI (PDZ domain PREX2-2) was -0.021, the BI (PDZ domain PRX-1) was -0.1 and the BI (PDZ domain PSCDBP-1) was -0.154. For the same compound, the BI (PDZ domain PSMD9-1) was -0.01, the BI (PDZ domain PTPN3-1) was 0.075 and the BI (PDZ domain PTPN4-1) was 0.017. The BI (PDZ domain PTPN13-1) was 0.143, the BI (PDZ domain PTPN13-5) was -0.041 and the BI (PDZ domain RAPGEF2-1) was -0.045. The BI (PDZ domain RHPN2-1) was -0.079, the BI (PDZ domain SCRIB-1) was 0.062 and the BI (PDZ domain SCRIB-2) was -0.183. It also gave a BI (PDZ domain SCRIB-4) of 0.061, a BI (PDZ domain SHANK1-1) of 0.251 and a BI (PDZ domain SHANK2-1) of 0.071. For the same compound, the BI (PDZ domain SHANK3-1) was 0.106, the BI (PDZ domain SHROOM2-1) was 0.022 and the BI (PDZ domain SHROOM4-1) was -0.001. The BI (PDZ domain SIPA1L2-1) was 0.019, the BI (PDZ domain SNTA1-1) was 0.18 and the BI (PDZ domain SNTB1-1) was 0.156. It also gave a BI (PDZ domain SNTG1-1) of 0.078, a BI (PDZ domain SNTG2-1) of 0.056 and a BI (PDZ domain STXB4-1) of -0.026. It also gave a BI (PDZ domain SYNJ2BP-1) of 0.089, a BI (PDZ domain SYNP2-1) of -0.045 and a BI (PDZ domain SYNPO2L-1) of -0.053. For the same compound, the BI (PDZ domain TIAM1-1) was 0.032, the BI (PDZ domain TIAM2-1) was 0.033 and the BI (PDZ domain TJP1-1) was 0.119. For the same compound, the BI (PDZ domain TJP1-2) was -0.039, the BI (PDZ domain TJP2-3) was 0.064 and the BI (PDZ domain TJP3-1) was 0.015. The BI (PDZ domain TJP3-2) was 0.017, the BI (PDZ domain TX1B3-1) was -0.022 and the BI (PDZ domain USH1C-1) was -0.104. For the same compound, the “number of PDZ domains identified as potential binders (BI>0.20)” value (holdup, singlicate, threshold BI>0.20) was 19 PDZ domains, the “maximal BI” value (holdup, singlicate, highest BI in the PDZome profile, BI standard error ~0.07) was 0.71 and the “binding of several PDZ domains (in words)” value (including several ones from MAGI and NHERF) was “detectably bound”. The “Max BI” value (maximum over PDZome) was 0.71.
